Key:
Assay type in all cases: in vivo
[1] = tested on: cattle tick larvae (Rhipicephalus microplus), strain Parkhurst, resistant against synthetic pyrethroids; experiment: Rhipicephalus (Boophilus) microplus in-vitro contact test, larval cattle tick; settings: 5 μg/cm^2 (=500 g/ha), after 48 hours, read-out: efficacy (larvae dead or moribund)
Method: (§1) 9 mg compound is solved in 1 mL acetone and diluted with acetone to the desired concentration. 250 μL of the test solution is filled in 25 mL glass test tubes and homogeneously distributed on the inner walls by rotation and tilting on a shaking device (2 h at 30 rpm). With a compound concentration of 900 ppm, an inner surface of 44.7 cm^2 and a homogeneous distribution, a dose of 5 μg/cm^2 is achieved.
After the solvent has evaporated, each test tube is filled with 20-50 cattle tick larvae (Rhipicephalus microplus), closed with a perforated lid and incubated in a horizontal position at 85% relative humidity and 27° C. in an incubator. After 48 hours efficacy is determined. The larvae are patted on the ground of the tubes and negative geotactic behaviour is recorded.
An efficacy of 100% means all larvae are dead or moribund; 0% means no larvae are dead or moribund.

[2] = tested on: adult engorged female ticks (Rhipicephalus microplus); experiment: Rhipicephalus (Boophilus) microplus injection test; settings: 168 h, egg deposition after 7 days, read-out: efficacy (infertile eggs); for pest or weed control at 0.004 mg: 4 μg/animal; for pest or weed control at 0.02 mg: 20 μg/animal
Method: (§2) Solvent: dimethyl sulfoxide
To produce a suitable preparation of active compound, 10 mg of active compound are dissolved in 0.5 mL solvent, and the concentrate is diluted with solvent to the desired concentration.
Five adult engorged female ticks (Rhipicephalus microplus) are injected with 1 μL compound solution into the abdomen. The ticks are transferred into replica plates and incubated in a climate chamber.
After 7 days egg deposition of fertile eggs is monitored. Eggs where fertility is not visible are stored in a climate chamber till hatching after about 42 days. An efficacy of 100% means all eggs are infertile; 0% means all eggs are fertile.

[3] = tested on: adult unfed cat fleas (Ctenocephalides felis); experiment: Ctenocephalides felis oral test; settings: 48 h, 100 ppm in cattle blood, after 2 days
Method: as §2
To produce a suitable preparation of active compound, 10 mg of active compound are dissolved in 0.5 mL solvent, and the concentrate is diluted with cattle blood to the desired concentration.
Approximately 20 adult unfed cat fleas (Ctenocephalides felis) are placed in flea chambers. The blood chamber, sealed with parafilm on the bottom, are filled with cattle blood supplied with compound solution and placed on the gauze covered top of the flea chamber, so that the fleas are able to suck the blood. The blood chamber is heated to 37° C. whereas the flea chamber is kept at room temperature.
After 2 days mortality in % is determined. 100% means all the fleas have been killed; 0% means none of the fleas have been killed.

[4] = tested on: larvae of the banded cucumber beetle (Diabrotica balteata); experiment: Diabrotica balteata spray test; settings: 168 h, 100 g/ha (=32 μg/well), after 7 days, wheat seeds, read-out: efficacy (seedlings grown up)
Method: (§3) Solvent: 78.0 parts by weight of acetone • • 1.5 parts by weight of dimethylformamide
(§4) Emulsifier: alkylarylpolyglycol ether
(§5) To produce a suitable preparation of active compound, 1 part by weight of active compound is mixed with the stated amount of solvent, and the concentrate is diluted with water, containing an emulsifier concentration of 1000 ppm, to the desired concentration. Further test concentrations are prepared by dilution with emulsifier containing water.
Soaked wheat seeds (Triticum aestivum) are placed in a multiple well plate filled with agar and some water and are incubated for 1 day to germinate (5 seeds per well). The germinated wheat seeds are sprayed with a test solution containing the desired concentration of the active ingredient. Afterwards each unit is infected with 10-20 larvae of the banded cucumber beetle (Diabrotica balteata).
After 7 days efficacy in % is determined. 100% means all the seedlings have grown up like in the untreated, uninfected control; 0% means none of the seedlings have grown.

[5] = tested on: fall armyworm larvae (Spodoptera frugiperda); experiment: Spodoptera frugiperda spray test (maize leaf sections); settings: 168 h
Method: Solvent: 78.0 parts by weight acetone • 1.5 parts by weight dimethylformamide
as §4
To produce a suitable preparation of active compound, 1 part by weight of active compound is mixed with the stated amount of solvents and is diluted with water, containing an emulsifier concentration of 1000 ppm, to the desired concentration. Further test concentrations are prepared by dilution with emulsifier containing water.
Maize (Zea mays) leaf sections are sprayed with a preparation of the active ingredient of the desired concentration. Once dry, the leaf sections are infested with fall armyworm larvae (Spodoptera frugiperda).
After 7 days mortality in % is determined. 100% means all caterpillars have been killed and 0% means none of the caterpillars have been killed.

[6] = tested on: larvae of the southern green stink bug (Nezara viridula); experiment: Nezara viridula spray test; settings: in Hordeum vulgare, 96 h
Method: as §3, §4, §5
Barley plants (Hordeum vulgare) infested with larvae of the southern green stink bug (Nezara viridula) are sprayed with a test solution containing the desired concentration of the active ingredient.
After 4 days mortality in % is determined. 100% means all the stink bugs have been killed; 0% means none of the stink bugs have been killed.

[7] = tested on: adult brown dog ticks (Rhipicephalus sanguineus); experiment: Rhipicephalus sanguineus in-vitro contact test with adult brown dog ticks; settings: after 48 hours, read-out: efficacy (ticks dead or moribund); for pest or weed control at 5 µg/cm2, 500 g/ha: 5 μg/cm^2 (=500 g/ha)
Method: as §1
After the solvent has evaporated, each test tube is filled with 5-10 adult brown dog ticks (Rhipicephalus sanguineus), closed with a perforated lid and incubated in a lying position at room temperature and relative humidity. After 48 hours efficacy is determined. The ticks are patted on the ground of the tubes and are incubated on a heating plate at 45-50° C. for at most 5 minutes. Immotile or uncoordinated moving ticks, which are not able to escape the heat by climbing upwards, are marked as dead or moribund.
An efficacy of 100% means all ticks are dead or moribund; 0% means no ticks are dead or moribund.

SMILES	pest or weed control at 0.004 mg [2] [%]	mortality at 100 ppm [3] [%]	pest or weed control at 0.02 mg [2] [%]	other results
CC(NC(=O)c1cc(Cl)cc(C(F)(F)F)c1)c1nc(C#N)nn1-c1ccc(C#N)cn1 (stereo not shown) [I-081]	100	90	–	pest or weed control at 5 µg/cm2 [1]: 100%; pest or weed control at 32 µg/disc, 100 g/ha [4]: 100%
CC(NC(=O)c1cc(Cl)cc(C(F)(F)F)c1)c1nc(-c2cnccn2)nn1-c1ccc(Cl)cn1 (stereo not shown) [I-040]	100	100	100	pest or weed control at 5 µg/cm2 [1]: 100%
CC(NC(=O)c1cc(Cl)cc(S(C)(=O)=O)c1)c1nc(N)nn1-c1ncccn1 (stereo not shown) [I-008]	100	100	–	–
CC(NC(=O)c1cncc(C(F)(F)F)c1)c1nc(-c2cnccn2)nn1-c1ncccn1 (stereo not shown) [I-050]	100	100	100	–
CC(NC(=O)c1cc(Cl)nc(C(F)(F)F)c1)c1nc(-c2cnccn2)nn1-c1ncccn1 (stereo not shown) [I-044]	100	100	100	–
CC(NC(=O)c1cc(Br)cc(C(F)(F)F)c1)c1nc(-c2cnccn2)nn1-c1ccc(Cl)cn1 (stereo not shown) [I-036]	–	100	100	pest or weed control at 5 µg/cm2 [1]: 100%; mortality at 100 g/ha [5]: 100%; mortality at 500 g/ha [5]: 100%
CC(NC(=O)c1cc(Cl)cc(Cl)c1)c1nc(-c2cnccn2)nn1-c1ncccn1 (stereo not shown) [I-046]	100	100	100	mortality at 500 g/ha [5]: 100%
CC(NC(=O)c1cc(Cl)cc(C(F)(F)F)c1)c1nc(Cc2ccccc2)nn1-c1ncccn1 (stereo not shown) [I-083]	–	90	–	pest or weed control at 32 µg/disc, 100 g/ha [4]: 100%
CC(NC(=O)c1cc(Cl)cc(C(F)(F)F)c1)c1nc(-c2cnccn2)nn1-c1ncccn1 (stereo not shown) [I-047]	100	100	100	mortality at 500 g/ha [5]: 83%
CC(NC(=O)c1cc(Cl)nc(Cl)c1)c1nc(-c2cnccn2)nn1-c1ccc(Cl)cn1 (stereo not shown) [I-035]	–	100	100	pest or weed control at 5 µg/cm2 [1]: 100%
CC(NC(=O)c1cc(Cl)cc(S(C)(=O)=O)c1)c1nc(NC(=O)C2CC2(F)F)nn1-c1ncccn1 (stereo not shown) [I-021]	80	100	–	mortality at 100 g/ha [6]: 90%
CC(NC(=O)c1cc(Cl)nc(C(F)(F)F)c1)c1nc(-c2cnccn2)nn1-c1ccc(Cl)cn1 (stereo not shown) [I-037]	100	90	100	–
CC(NC(=O)c1cc(Cl)cc(C(F)(F)F)c1)c1nc(NC(=O)C2(Cl)CC2)nn1-c1ccc(Cl)cn1 (stereo not shown) [I-014]	100	100	100	pest or weed control at 5 µg/cm2 [1]: 100%; mortality at 100 g/ha [5]: 100%; mortality at 500 g/ha [5]: 100%
CC(NC(=O)c1cncc(C(F)(F)F)c1)c1nc(-c2ccc(Cl)nc2)nn1-c1ncccn1 (stereo not shown) [I-042]	–	90	100	–
CC(NC(=O)c1cc(C(F)(F)F)cc(C(F)(F)F)c1)c1nc(Cc2ccccc2)nn1-c1ncccn1 (racemic) [I-082, N-[1-(5-benzyl-2-pyrimidin-2-yl-1,2,4-triazol-3-yl)ethyl]-3,5-bis(trifluoromethyl)benzamide]	100	100	–	pest or weed control at 32 µg/disc, 100 g/ha [4]: 80%
CC(NC(=O)c1cc(Cl)nc(C(F)(F)F)c1)c1nc(-c2ncccn2)nn1-c1ncccn1 (stereo not shown) [I-056]	80	100	100	–
CC(NC(=O)c1cc(Cl)cc(C(F)(F)F)c1)c1nc(-c2ccc(Cl)nc2)nn1-c1ccc(Cl)cn1 (stereo not shown) [I-032]	–	–	–	pest or weed control at 5 µg/cm2, 500 g/ha [7]: 80%
CC(NC(=O)c1cncc(C(F)(F)F)c1)c1nc(-c2cnccn2)nn1-c1ccc(Cl)cn1 (stereo not shown) [I-038]	100	100	100	–
CNc1nc([C@H](C)NC(=O)c2cc(C(F)(F)F)cc(C(F)(F)F)c2)n(-c2ncc(C(=O)N3CCOCC3)s2)n1 [I-126, N-[(1S)-1-[5-(methylamino)-2-[5-(morpholine-4-carbonyl)thiazol-2-yl]-1,2,4-triazol-3-yl]ethyl]-3,5-bis(trifluoromethyl)benzamide]	–	–	–	pest or weed control at 5 µg/cm2, 500 g/ha [7]: 80%; pest or weed control at 32 µg/disc, 100 g/ha [4]: 100%; mortality at 500 g/ha [6]: 100%; mortality at 100 g/ha [5]: 100%
CC(NC(=O)c1cc(Br)cc(C(F)(F)F)c1)c1nc(-c2cnccn2)nn1-c1ncccn1 (stereo not shown) [I-048]	100	100	–	mortality at 500 g/ha [5]: 83%
CC(NC(=O)c1cc(Cl)cc(S(C)(=O)=O)c1)c1nc(-c2cnccn2)nn1-c1ccc(Cl)cn1 (stereo not shown) [I-039]	100	100	80	–
CC(NC(=O)c1cc(Cl)cc(C(C)(C)C#N)c1)c1nc(N2CCOCC2)nn1-c1ccc(C#N)cn1 (stereo not shown) [I-159]	–	–	–	pest or weed control at 5 µg/cm2 [1]: 100%; pest or weed control at 1 µg/cm2, 100 g/ha ([7]; 1 μg/cm^2 (=100 g/ha)): 100%; pest or weed control at 32 µg/disc, 100 g/ha [4]: 100%; mortality at 500 g/ha [6]: 90%; mortality at 100 g/ha [5]: 100%

Reference: patent publication US20230028441A1, “NOVEL HETEROARYL-TRIAZOLE COMPOUNDS AS PESTICIDES” (Bayer Aktiengesellschaft, priority 2019, published 2023)
